Measured values published in patent publication US9834542B2, “LXR modulators” (BRISTOL-MYERS SQUIBB COMPANY, priority 2013, dated 2017).

Molecular target: T1, LXRβ (Homo sapiens, UniProt P55055)
T1 construct: Co-transfection expression plasmids, comprising full-length LXRα (pCMX-h LXRα[…] or LXRβ (pCMX-hLXRβ)); expressed in transfected cells; host or cells: CV-1 African Green Monkey Kidney Cells
T1 sequence (P55055 1-460): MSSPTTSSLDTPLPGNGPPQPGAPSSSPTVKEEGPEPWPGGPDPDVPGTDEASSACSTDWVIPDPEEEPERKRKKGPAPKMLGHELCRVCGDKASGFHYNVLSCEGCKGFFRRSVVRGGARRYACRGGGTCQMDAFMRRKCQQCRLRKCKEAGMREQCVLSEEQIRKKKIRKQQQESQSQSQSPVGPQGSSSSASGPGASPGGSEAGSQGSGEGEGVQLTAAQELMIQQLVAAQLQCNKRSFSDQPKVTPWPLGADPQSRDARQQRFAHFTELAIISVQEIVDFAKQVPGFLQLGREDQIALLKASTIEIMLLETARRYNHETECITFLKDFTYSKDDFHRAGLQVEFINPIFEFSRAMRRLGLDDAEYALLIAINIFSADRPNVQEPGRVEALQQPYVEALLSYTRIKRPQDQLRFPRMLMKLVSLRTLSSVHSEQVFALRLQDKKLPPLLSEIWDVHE
T1 sequence (P19793 1-462 partner): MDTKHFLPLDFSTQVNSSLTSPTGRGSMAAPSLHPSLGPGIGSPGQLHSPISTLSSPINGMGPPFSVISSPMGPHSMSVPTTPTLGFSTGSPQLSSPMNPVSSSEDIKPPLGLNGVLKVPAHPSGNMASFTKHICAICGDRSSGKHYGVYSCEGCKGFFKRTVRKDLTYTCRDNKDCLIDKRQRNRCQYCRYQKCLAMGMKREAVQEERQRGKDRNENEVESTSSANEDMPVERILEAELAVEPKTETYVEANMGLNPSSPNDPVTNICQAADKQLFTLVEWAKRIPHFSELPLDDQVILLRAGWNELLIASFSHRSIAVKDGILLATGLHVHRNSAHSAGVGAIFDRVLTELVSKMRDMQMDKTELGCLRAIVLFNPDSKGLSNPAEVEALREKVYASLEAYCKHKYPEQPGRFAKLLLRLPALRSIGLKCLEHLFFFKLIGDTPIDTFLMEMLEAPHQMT
Assay: Co-transfection assay (LXRE luciferase reporter), LXRβ
Type: cell-based
Conditions: for EC50: CV-1 cells transfected with pCMX-hLXRβ and LXREx1-Tk-Luciferase, 20 hours incubation; for Emax: LXRβ co-transfection, relative to high control 1-(2,4-difluorobenzyl)-2-oxo-6-(4-phenoxyphenyl)-4-(trifluoromethyl)-1,2-dihydropyridine-3-carbonitrile, read-out: % Efficacy
How it was run: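 Luciferase output from an LXRE-Tk reporter measured after 20 h, 37 °C compound exposure of transiently transfected CV-1 cells expressing human LXRβ with endogenous RXR. EC50 fitted from 11-point half-log dose responses (mean of ≥2 runs); % efficacy versus maximal response of the reference agonist.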

Molecule `Cc1nc(-c2cc(-c3cc(F)c(CO)c(S(C)(=O)=O)c3)ccc2-n2cc(C(F)(F)F)nc2C)c(-c2ccc(Cl)cc2F)o1` [Example 485, (3′-(5-(4-chloro-2-fluorophenyl)-2-methyloxazol-4-yl)-3-fluoro-4′-(2-methyl-4-(trifluoromethyl)-1H-imidazol-1-yl)-5-(methylsulfonyl)biphenyl-4-yl)methanol] has an EC50 of 32 nM and an Emax of 55%.
In the case of `CNS(=O)(=O)c1cccc(-c2cc(F)c(-n3cc(C(F)(F)F)nc3C)c(-n3nncc3-c3ccc(Cl)cc3)c2)c1` [Example 209, 3′-[5-(4-chlorophenyl)-1H-1,2,3-triazol-1-yl]-5′-fluoro-N-methyl-4′-[2-methyl-4-(trifluoromethyl)-1H-imidazol-1-yl]biphenyl-3-sulfonamide], the EC50 is reported as 214 nM and the Emax is reported as 80%.
Molecule `CCc1nc(-c2cc(-c3ccc(CO)c(S(C)(=O)=O)c3)ccc2-n2cc(C(F)(F)F)nc2C)c(-c2ccc(OC(F)(F)F)cc2)o1` [Example 519, (3′-(2-ethyl-5-(4-(trifluoromethoxy)phenyl)oxazol-4-yl)-4′-(2-methyl-4-(trifluoromethyl)-1H-imidazol-1-yl)-3-(methylsulfonyl)-[1,1′-biphenyl]-4-yl)methanol] has an EC50 of 140 nM and an Emax of 100%.
With `Cc1nc(-c2cc(-c3cc(F)c(CO)c(S(C)(=O)=O)c3)ccc2-n2cc(C(F)(F)F)nc2C)c(-c2ccc(F)c(OC(F)F)c2)o1` [Example 461, (3′-(5-(3-(difluoromethoxy)-4-fluorophenyl)-2-methyloxazol-4-yl)-3-fluoro-4′-(2-methyl-4-(trifluoromethyl)-1H-imidazol-1-yl)-5-(methylsulfonyl)biphenyl-4-yl)methanol] the EC50 was 127 nM and the Emax was 61%.
Work on `Cc1nc(C(F)(F)F)cn1-c1ccc(-c2cccc(S(C)(=O)=O)c2)cc1-c1ocnc1Cc1ccc(OC(F)(F)F)cc1` [Example 636, 5-(4-(2-methyl-4-(trifluoromethyl)-1H-imidazol-1-yl)-3′-(methylsulfonyl)-[1,1′-biphenyl]-3-yl)-4-(4-(trifluoromethoxy)benzyl)oxazole] yielded an EC50 of 702 nM and an Emax of 41%.
Molecule `CS(=O)(=O)c1cccc(-c2ccc(-n3cc(C(F)(F)F)nc3Cl)c(-n3nncc3-c3ccc(OC(F)(F)F)cc3)c2)c1` [Example 146, 1-{4-[2-chloro-4-(trifluoromethyl)-1H-imidazol-1-yl]-3′-(methylsulfonyl)biphenyl-3-yl}-5-{4-[(trifluoromethyl)oxy]phenyl}-1H-1,2,3-triazole] has an EC50 of 251 nM and an Emax of 112%.
`CCc1nc(-c2cc(-c3cccc(S(C)(=O)=O)c3)ccc2-n2cc(C(F)(F)F)nc2C)c(-c2ccc3c(c2)OC(F)(F)O3)o1` [Example 478, 5-(2,2-difluorobenzo[d][1,3]dioxol-5-yl)-2-ethyl-4-(4-(2-methyl-4-(trifluoromethyl)-1H-imidazol-1-yl)-3′-(methylsulfonyl)biphenyl-3-yl)oxazole] was tested, and the EC50 was 32 nM and the Emax was 89%.
Molecule `CS(=O)(=O)c1cccc(-c2cc(Cl)c(-n3cnc(C(F)(F)F)c3)c(-n3nncc3-c3ccc(OC(F)(F)F)cc3)c2)c1` [Example 192, 1-{5-chloro-3′-(methylsulfonyl)-4-[4-(trifluoromethyl)-1H-imidazol-1-yl]biphenyl-3-yl}-5-{4-[(trifluoromethyl)oxy]phenyl}-1H-1,2,3-triazole] has an EC50 of 598 nM and an Emax of 42%.
In the case of `Cc1nc(C(F)(F)F)cn1-c1ccc(-c2cc(Cl)c(CO)c(S(C)(=O)=O)c2)cc1-n1nncc1-c1ccc(Cl)c(Cl)c1` [Example 79, {3-chloro-3′-[5-(3,4-dichlorophenyl)-1H-1,2,3-triazol-1-yl]-5-(methylsulfonyl)-4′-[2-methyl-4-(trifluoromethyl)-1H-imidazol-1-yl]biphenyl-4-yl}methanol], the EC50 is reported as 227 nM and the Emax is reported as 71%.
